# Measured values as given in patent US20240018133A1, “MODULATORS OF THE INTEGRATED STRESS PATHWAY” (Calico Life Sciences LLC, priority 2019, published 2024).
# Test system: ATF4 luciferase reporter (human full-length ATF4 5'-UTR fused to firefly luciferase) in HEK293T cells
# Experiment: ATF4-Luc assay (in vitro model of VWMD): HEK293T cells carrying ATF4 luciferase reporter, tunicamycin-treated
# Assay type: cell-based
# Settings: Homo sapiens, HEK-293T, 1 μg/mL tunicamycin, 7 hours, One Glo luminescence
# Method: In order to test exemplary compounds of the invention in a cellular context, a stable VWMD cell line was first constructed. The ATF4 reporter was prepared by fusing the human full-length ATF4 5′-UTR (NCBI Accession No. BC022088.2) in front of the firefly luciferase (FLuc) coding sequence lacking the initiator methionine as described in Sidrauski et al (eLife 2013). The construct was used to produce recombinant retroviruses using standard methods and the resulting viral supernatant was used to transduce HEK293T cells, which were then subsequently selected with puromycin to generate a stable cell line.
# HEK293T cells carrying the ATF4 luciferase reporter were plated on polylysine coated 384-well plates (Greiner Bio-one) at 30,000 cells per well. Cells were treated the next day with 1 μg/mL tunicamycin and 200 nM of a compound of Formula (I) for 7 hours. Luminescence was measured using One Glo (Promega) as specified by the manufacturer. Cells were maintained in DMEM with L-glutamine supplemented with 10% heat-inactivated FBS (Gibco) and Antibiotic-Antimycotic solution (Gibco).
# Table 2 below summarizes the EC50 data obtained using the ATF4-Luc assay for exemplary compounds of the invention.
row,SMILES,EC50 [nM]
1,"O=C(NC12CCC(NC(=O)[C@H]3C[C@@H](O)c4cc(Cl)ccc4O3)(CC1)[C@@H](O)C2)c1cc(C(F)F)no1 (single isomer, unassigned) [Compound 215]",10 to 50
2,"O=C(NC12CCC(NC(=O)[C@@H]3C[C@H](O)c4cc(Cl)ccc4O3)(CC1)[C@@H](O)C2)c1cc(C(F)F)no1 (single isomer, unassigned) [Compound 216]",250 to 500
3,"C[C@]1(O)C[C@@H](C(=O)NC23CC(NC(=O)COc4ccc(Cl)c(F)c4)(C2)C3)Oc2ccc(Cl)cc21 (single isomer, unassigned) [Compound 237]",< 10
4,"O=C(COc1ccc(Cl)c(F)c1)NC12CCC(NC(=O)[C@H]3C[C@@H](O)c4cc(Cl)ccc4O3)(CC1)[C@@H](O)C2 (single isomer, unassigned) [Compound 238]",< 10
5,"O=C(COc1ccc(Cl)c(F)c1)NC12CCC(NC(=O)[C@@H]3C[C@H](O)c4cc(Cl)ccc4O3)(CC1)[C@@H](O)C2 (single isomer, unassigned) [Compound 239]",< 10
6,"Cc1cc2c(cc1F)[C@H](O)C[C@H](C(=O)NC13CC(NC(=O)COc4ccc(Cl)c(F)c4)(C1)C3)O2 (single isomer, unassigned) [Compound 241]",< 10
7,"O=C(COc1ccc(Cl)c(F)c1)NC12CC(NC(=O)[C@@H]3C[C@H](O)c4cc(Cl)c(F)cc4O3)(C1)C2 (single isomer, unassigned) [Compound 265]",< 10
8,"C[C@@]1(O)C[C@H](C(=O)NC23CC(NC(=O)COc4ccc(Cl)c(F)c4)(C2)C3)Oc2ccc(Cl)cc21 (single isomer, unassigned) [Compound 280]",10 to 50
9,"C[C@]1(O)C[C@H](C(=O)NC23CC(NC(=O)COc4ccc(Cl)c(F)c4)(C2)C3)Oc2ccc(Cl)cc21 (single isomer, unassigned) [Compound 281]",< 10
10,"C[C@@]1(O)C[C@@H](C(=O)NC23CC(NC(=O)COc4ccc(Cl)c(F)c4)(C2)C3)Oc2ccc(Cl)cc21 (single isomer, unassigned) [Compound 288]",< 10
11,"CN1CC(C(=O)NC23CCC(NC(=O)COc4ccc(Cl)c(F)c4)(CC2)[C@@H](O)C3)Oc2ccc(Cl)cc21 (stereo partly drawn) [Compound 107, 6-chloro-N-{(3S)-4-[2-(4-chloro-3-fluorophenoxy)acetamido]-3-hydroxybicyclo[2.2.2]octan-1-yl}-4-methyl-3,4-dihydro-2H-1,4-benzoxazine-2-carboxamide]",< 10
12,"CN1CC(C(=O)NC23CC(NC(=O)COc4ccc(Cl)c(F)c4)(C2)C3)Oc2ccc(Cl)cc21 (stereo not drawn) [Compound 112, 6-chloro-N-{3-[2-(4-chloro-3-fluorophenoxy)acetamido]bicyclo[1.1.1]pentan-1-yl}-4-methyl-3,4-dihydro-2H-1,4-benzoxazine-2-carboxamide]",< 10
13,"O=C(COc1ccc(Cl)c(F)c1)NC12CC(NC(=O)C3CNc4cc(Cl)ccc4O3)(C1)C2 (stereo not drawn) [Compound 113, 6-chloro-N-{3-[2-(4-chloro-3-fluorophenoxy)acetamido]bicyclo[1.1.1]pentan-1-yl}-3,4-dihydro-2H-1,4-benzoxazine-2-carboxamide]",< 10
14,"O=C(COc1ccc(Cl)c(F)c1)NC12CC(NC(=O)C3CN(C(=O)c4ccc(S(=O)(=O)F)cc4)c4cc(Cl)ccc4O3)(C1)C2 (stereo not drawn) [Compound 147, 4-[6-chloro-2-({3-[2-(4-chloro-3-fluorophenoxy)acetamido]bicyclo[1.1.1]pentan-1-yl}carbamoyl)-2,3-dihydro-4H-1,4-benzoxazine-4-carbonyl]benzene-1-sulfonyl fluoride]",500 to 2000
15,"CC(C)(C)OC(=O)CN1C[C@@H](C(=O)NC23CCC(NC(=O)COc4ccc(Cl)c(F)c4)(CC2)[C@@H](O)C3)Oc2ccc(Cl)cc21 [Compound 184, tert-butyl [(2S)-6-chloro-2-({(3S)-4-[2-(4-chloro-3-fluorophenoxy)acetamido]-3-hydroxybicyclo[2.2.2]octan-1-yl}carbamoyl)-2,3-dihydro-4H-1,4-benzoxazin-4-yl]acetate]",250 to 500
